Reference: article PMC10322702 (Nature Chemistry, 2023)
“And” between values parts separate entries of the source, which are not always exact repeats. Equal values may be shown once. Numbered stars: 1 amine (or outer) side, 2 acyl side, 3 side chain; on linkers, the order of the positions; unused ones are H or OH. Bridge positions count the residues as written; N and C are the ends. Square brackets hold non-standard residues; d marks the D form. Peptide text beside a SMILES is read from it. Acbc(cis-1,3) = O=C([C@H]1C[C@@H](N[*:1])C1)[*:2]

Experiments:
[1] = target: T1, SARS-CoV-2 M^pro (Severe acute respiratory syndrome coronavirus 2, UniProt P0DTD1); assay: biochemical; assay type: binding; settings: for kon: read-out: ka (kinetic association)
[2] = target: T1, SARS-CoV-2 M^pro; assay: biochemical; assay type: biochemical
[3] = Serum stability assay in human serum (LC/MS); settings: for Remaining peptide (%) / remaining at 0.5 h, 10 μM / remaining at 1 h, 10 μM / remaining at 2 h, 10 μM / remaining at 4 h, 10 μM / remaining at 8 h, 10 μM / remaining at 24 h, 10 μM / remaining at 50 h, 10 μM / remaining at 100 h, 10 μM: 37 °C, relative to 0 h = 100%, technical replicates; for half-life at 10 μM / remaining at 0.5 h, 10 μM / remaining at 1 h, 10 μM / remaining at 2 h, 10 μM / remaining at 4 h, 10 μM / remaining at 8 h, 10 μM / remaining at 24 h, 10 μM / remaining at 50 h, 10 μM / remaining at 100 h, 10 μM: human; for remaining at 0.5 h, 10 μM / remaining at 1 h, 10 μM / remaining at 2 h, 10 μM / remaining at 4 h, 10 μM / remaining at 8 h, 10 μM / remaining at 24 h, 10 μM / remaining at 50 h, 10 μM / remaining at 100 h, 10 μM: Remaining peptide (%)
[4] = incubation time 100 h, 6000 min

Row | Compound | Kd [1] [nM] | kd (kinetic dissociation) [1] | kon [1] [M⁻¹ s⁻¹] | IC50 [2] [nM] | inhibition at 2.75 µM [2] [%] | inhibition at 8.32 µM [2] [%] | Remaining peptide (%) ([3]; incubation time 1 h, 60 min) | Remaining peptide (%) ([3]; incubation time 2 h, 120 min) | Remaining peptide (%) ([3]; incubation time 4 h, 240 min) | Remaining peptide (%) ([3]; incubation time 8 h, 480 min) | Remaining peptide (%) ([3]; incubation time 24 h, 1440 min) | half-life at 10 μM [3] [h] | remaining at 1 h, 10 μM ([3]; incubation time 1 h) [%] | remaining at 2 h, 10 μM ([3]; incubation time 2 h) [%] | remaining at 4 h, 10 μM ([3]; incubation time 4 h) [%] | remaining at 8 h, 10 μM ([3]; incubation time 8 h) [%] | remaining at 24 h, 10 μM ([3]; incubation time 24 h) [%] | Remaining peptide (%) ([3]; incubation time 50 h, 3000 min) | Remaining peptide (%) [3, 4] | remaining at 50 h, 10 μM ([3]; incubation time 50 h) [%] | also measured
1 | CC[C@H](C)[C@@H]1NC(=O)[C@H](CO)NC(=O)[C@H](Cc2ccccc2)NC(=O)[C@H]2C[C@H](C2)NC(=O)[C@H](Cc2c[nH]cn2)NC(=O)[C@H](Cc2ccccc2)NC(=O)[C@@H](Cc2ccc(O)cc2)NC(=O)CSC[C@H](C(N)=O)NC(=O)[C@H](CC(C)C)NC(=O)[C@H](CCCNC(=N)N)NC(=O)[C@H](Cc2ccc(O)cc2)NC(=O)[C@H](CCCNC(=N)N)NC(=O)[C@H](Cc2ccccc2)NC1=O [GM2] ({CH2CO}-[dY]FH[Acbc(cis-1,3)]FSIFRYRL[dC]-NH2; thioether N-13) | 71 | 15 10^-3 s^-1 | 210000 | 1750 | 75.7 | 96.8 | 55.82% and 51.95% | 34.08% and 32.68% | 19.16% and 17.53% | 10.08% and 8.62% | 1.74% and 1.76% | 1.1 | 48.3 | 36 | 17.5 | 9.99 | 1.85 |  |  |  | Remaining peptide (%) ([3]; incubation time 0.5 h, 30 min): 61.67% and 57.11%; remaining at 0.5 h, 10 μM ([3]; incubation time 0.5 h): 57.7%
2 | CC(C)C[C@@H]1NC(=O)[C@H]([C@@H](C)O)NC(=O)[C@H](Cc2ccc(O)cc2)NC(=O)[C@H]([C@@H](C)O)NC(=O)[C@H](Cc2c[nH]cn2)NC(=O)[C@@H]2CCCN2C(=O)[C@@H]2CCCN2C(=O)[C@H](Cc2ccccc2)NC(=O)[C@H]2C[C@H](C2)NC(=O)[C@H](Cc2c[nH]cn2)NC(=O)[C@H](Cc2ccccc2)NC(=O)[C@@H](Cc2ccc(O)cc2)NC(=O)CSC[C@H](C(N)=O)NC1=O [GM1] ({CH2CO}-[dY]FH[Acbc(cis-1,3)]FPPHTYTL[dC]-NH2; thioether N-13) | 2.3 | 0.94 10^-3 s^-1 | 410000 | 40 | 100 | 100 | 111.08% and 111.88% |  | 108.25% and 114.45% | 111.46% and 107.42% | 74.66% and 74.47% | 90 | 111 |  | 115 | 116 | 77.3 | 63.33% and 64.88% | 44.95% and 47.73% | 67.1 | inhibition at 0.000141 µM [2]: 4.71%; inhibition at 0.0347 µM [2]: 43.7%; inhibition at 0.102 µM [2]: 75.5%; inhibition at 0.309 µM [2]: 93.7%; inhibition at 0.933 µM [2]: 100%; remaining at 100 h, 10 μM ([3]; incubation time 100 h): 49%
3 | CC(C)C[C@@H]1NC(=O)[C@H](CC(N)=O)NC(=O)[C@H](CC(C)C)NC(=O)[C@H]2C[C@H](C2)NC(=O)[C@H](CCC(N)=O)NC(=O)[C@H](Cc2ccccc2)NC(=O)[C@@H](Cc2ccc(O)cc2)NC(=O)CSC[C@H](C(N)=O)NC(=O)CNC(=O)[C@@H]2CCCN2C(=O)[C@H](CCCNC(=N)N)NC(=O)[C@H](Cc2ccc(O)cc2)NC(=O)CNC1=O [GM4H3Q] ({CH2CO}-[dY]FQ[Acbc(cis-1,3)]LNLGYRPG[dC]-NH2; thioether N-13) | 0.86 | 1.0 10^-3 s^-1 | 1.2e+06 | 10 |  |  | 98.03% and 94.19% | 84.19% and 81.93% | 100.31% and 98.70% | 92.68% and 86.88% | 77.71% and 81.24% | 82 | 93.4 | 87.5 | 99.9 | 93.9 | 81.3 | 64.07% and 63.70% | 43.40% and 43.85% | 70.1 | fold change in binding affinity relative to the original peptide [1]: sixfold stronger; fold more potent inhibitory activity relative to GM4 [2]: fivefold more potent; inhibition at 0.186 µM [2]: 96%; inhibition at 0.55 µM [2]: 100%; inhibition at 1.66 µM [2]: 100%; inhibition at 5.01 µM [2]: 100%; remaining at 100 h, 10 μM ([3]; incubation time 100 h): 44.2%
4 | CC(C)C[C@@H]1NC(=O)[C@@H](Cc2ccc(O)cc2)NC(=O)CSC[C@H](C(N)=O)NC(=O)[C@H](C)NC(=O)[C@H](C)NC(=O)[C@H](Cc2ccc(O)cc2)NC(=O)[C@H](CCCNC(=N)N)NC(=O)[C@H](Cc2ccc(O)cc2)NC(=O)[C@H](C)NC(=O)[C@H](CO)NC(=O)[C@H](Cc2ccc(O)cc2)NC(=O)[C@H]([C@@H](C)O)NC(=O)[C@H](CO)NC(=O)[C@H](C)NC(=O)[C@H](Cc2ccc(O)cc2)NC(=O)[C@H](Cc2c[nH]cn2)NC1=O [GM3γ^210A] ({CH2CO}-[dY]LHYASTYSAYRYAA[dC]-NH2; thioether N-16) | 7.5 | 2.1 10^-3 s^-1 | 280000 | 120 | 100 | 100 | 35.60% and 33.84% | 15.90% and 15.53% | 6.44% and 7.19% | 2.01% |  | 0.59 | 33.1 | 17 | 7.23 | 2.04 | 0 |  |  |  | fold change in binding affinity relative to the original peptide [1]: eightfold stronger; inhibition at 0.309 µM [2]: 77.9%; inhibition at 0.933 µM [2]: 95.6%; Remaining peptide (%) ([3]; incubation time 0.5 h, 30 min): 47.41% and 46.64%; remaining at 0.5 h, 10 μM ([3]; incubation time 0.5 h): 44.4%
5 | CC[C@H](C)[C@@H]1NC(=O)[C@H](Cc2ccc(O)cc2)NC(=O)[C@H](CC(C)C)NC(=O)[C@H](CC(=O)O)NC(=O)[C@H](CCCNC(=N)N)NC(=O)[C@H](Cc2ccccc2)NC(=O)[C@H](C)NC(=O)[C@H](Cc2c[nH]cn2)NC(=O)[C@H](Cc2ccccc2)NC(=O)[C@@H](Cc2ccc(O)cc2)NC(=O)CSC[C@H](C(N)=O)NC(=O)CNC(=O)[C@H](CC(C)C)NC1=O [GM5γ^24A] ({CH2CO}-[dY]FHAFRDLYILG[dC]-NH2; thioether N-13) | 61 | 8.7 10^-3 s^-1 | 140000 | 50 |  |  | 85.94% and 86.10% | 65.85% and 75.80% | 83.58% and 80.89% | 69.62% and 72.73% | 51.61% and 49.70% | 21 | 89.2 | 75.3 | 82.3 | 70.9 | 45.5 | 25.37% and 24.58% | 8.38% and 8.41% | 23 | inhibition at 1.86 µM [2]: 100%; inhibition at 5.62 µM [2]: 100%; inhibition at 16.6 µM [2]: 100%; inhibition at 50.1 µM [2]: 100%; inhibition at […] [2]: 100%; remaining at 100 h, 10 μM ([3]; incubation time 100 h): 7.6%
